Each structure is given as a SMILES string.

From paper PMC2990756, “Quantitative High-Throughput Screening Identifies 8-Hydroxyquinolines as Cell-Active Histone Demethylase Inhibitors” (PLoS ONE, 2010) come the findings set out here.

One data set addresses FIH (Homo sapiens, UniProt Q9NWT6). The data set can be described thus: MALDI-TOF MS peptide hydroxylation assay, FIH.
Data set [1] is described as follows: Cytotoxicity, resazurin/resorufin (CellTiter-Blue). The class given is cell-based. Conditions: human, HeLa cells. (Resazurin is reduced to fluorescent resorufin, in cell work by metabolically active cells.)
Method: Cytotoxicity testing of the 5-carboxy-8HQ on HeLa cells was conducted with the resazurin/resorufin system for cellular metabolism.
Cytotoxicity testing was done with CellTiter-Blue (Promega) according to the manufacturer's directions.
In the next data set the target is PHD2 (catalytic domain) (Homo sapiens, UniProt Q9GZT9). The data set can be described thus: MALDI-TOF MS peptide hydroxylation assay, PHD2.
Chain of PHD2 (catalytic domain) (Q9GZT9 181-426 limits assumed): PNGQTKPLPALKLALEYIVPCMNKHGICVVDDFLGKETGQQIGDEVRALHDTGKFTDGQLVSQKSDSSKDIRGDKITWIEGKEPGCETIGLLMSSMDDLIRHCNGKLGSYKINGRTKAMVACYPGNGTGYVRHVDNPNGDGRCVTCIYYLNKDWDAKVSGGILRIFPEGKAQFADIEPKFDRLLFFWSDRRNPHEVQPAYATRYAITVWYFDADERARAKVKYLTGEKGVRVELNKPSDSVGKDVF
In data set [2] the target is T1, JMJD2A (Homo sapiens, UniProt O75164).
T1 sequence (O75164 1-359 limits assumed): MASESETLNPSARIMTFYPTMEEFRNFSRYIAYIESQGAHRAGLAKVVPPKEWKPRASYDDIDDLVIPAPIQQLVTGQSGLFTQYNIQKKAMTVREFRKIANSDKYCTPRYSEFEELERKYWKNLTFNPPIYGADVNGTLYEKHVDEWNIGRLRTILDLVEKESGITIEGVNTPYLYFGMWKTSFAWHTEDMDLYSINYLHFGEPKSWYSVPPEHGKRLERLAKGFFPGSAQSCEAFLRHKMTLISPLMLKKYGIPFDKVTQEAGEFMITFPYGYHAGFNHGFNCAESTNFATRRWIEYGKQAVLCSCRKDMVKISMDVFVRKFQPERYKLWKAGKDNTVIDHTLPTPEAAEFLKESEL
The data set can be described thus: MALDI-TOF MS demethylation assay, JMJD2A.
Method: (§1) JMJD2 assays were carried out as reported [13]. […] Initially, JMJD2, Fe(II), ascorbate and inhibitors were pre-incubated for 15 min prior to the addition of peptide and 2OG. The reaction was incubated for 30 min before 1∶1 quenching with methanol followed by addition of four volumes of 20 mM triammonium citrate. PHD2 and FIH assays were carried out as described [41], [42] with minor modifications. PHD2 assay consisted of PHD2 (1 µM), FAS (10 µM), SA (100 µM), 2OG (60 µM) and HIF-1α^556–574CODD peptide (50 µM), in 50 mM HEPES (pH 7.5) with varying concentrations of inhibitors (final DMSO concentration was 5%). Initially, PHD2, Fe(II), ascorbate and inhibitors were pre-incubated for 15 min prior to the addition of peptide and 2OG. The reaction was incubated for 30 min before 1∶1 quenching with 1% TFA followed by addition of three volumes of 20 mM triammonium citrate. FIH assay consisted of FIH (1 µM), FAS (10 µM), SA (100 µM), 2OG (100 µM) and HIF-1α^786–826CAD peptide (100 µM), in 50 mM HEPES (pH 7.5) with varying concentrations of inhibitors (final DMSO concentration was 5%). […] The diluted assay mixture (1 µL) from JMJD2 and PHD2 assays were mixed with 1 µL of α-cyano-4-hydroxycinnamic acid and 1 µL of FIH assay mixture was mixed with 1 µL of sinapinic acid matrix, and assessed by matrix-assisted laser desorption/ionization-time of flight (MALDI-TOF).

The target of another data set is T2, JMJD2E (Homo sapiens, UniProt B2RXH2).
T2 sequence (B2RXH2 1-337): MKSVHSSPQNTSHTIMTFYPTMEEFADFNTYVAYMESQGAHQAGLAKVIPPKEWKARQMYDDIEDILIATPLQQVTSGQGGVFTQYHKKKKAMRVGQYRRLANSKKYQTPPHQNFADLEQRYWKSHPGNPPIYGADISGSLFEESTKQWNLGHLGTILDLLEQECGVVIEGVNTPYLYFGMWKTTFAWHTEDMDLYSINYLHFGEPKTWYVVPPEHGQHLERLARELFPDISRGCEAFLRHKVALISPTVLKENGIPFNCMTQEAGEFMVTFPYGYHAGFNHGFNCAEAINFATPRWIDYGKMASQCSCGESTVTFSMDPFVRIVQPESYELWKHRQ
As to the kind of experiment: MALDI-TOF MS demethylation assay, JMJD2E.

The next data set addresses T3, JMJD2E (KDM4E) (Homo sapiens, UniProt B2RXH2).
T3 construct: The catalytic domain of human JMJD2E (residues 1–337); His6 (N); made in house; host or cells: E. coli
T3 sequence (B2RXH2 1-337): T2 sequence (B2RXH2 1-337)
The data set can be described thus: qHTS fluorescence FDH-coupled JMJD2E demethylase assay. The class given is biochemical. The settings on record: Figure 3; substituted 8-hydroxyquinolines against JMJD2E; read-out: IC50 /μM (qHTS IC50, FDH-coupled assay). In general terms: In qHTS, concentration-response curves come from the screen itself.

Data set [3] concerns the target T4, JMJD2A (Homo sapiens, UniProt O75164).
T4 sequence (O75164 1-1064): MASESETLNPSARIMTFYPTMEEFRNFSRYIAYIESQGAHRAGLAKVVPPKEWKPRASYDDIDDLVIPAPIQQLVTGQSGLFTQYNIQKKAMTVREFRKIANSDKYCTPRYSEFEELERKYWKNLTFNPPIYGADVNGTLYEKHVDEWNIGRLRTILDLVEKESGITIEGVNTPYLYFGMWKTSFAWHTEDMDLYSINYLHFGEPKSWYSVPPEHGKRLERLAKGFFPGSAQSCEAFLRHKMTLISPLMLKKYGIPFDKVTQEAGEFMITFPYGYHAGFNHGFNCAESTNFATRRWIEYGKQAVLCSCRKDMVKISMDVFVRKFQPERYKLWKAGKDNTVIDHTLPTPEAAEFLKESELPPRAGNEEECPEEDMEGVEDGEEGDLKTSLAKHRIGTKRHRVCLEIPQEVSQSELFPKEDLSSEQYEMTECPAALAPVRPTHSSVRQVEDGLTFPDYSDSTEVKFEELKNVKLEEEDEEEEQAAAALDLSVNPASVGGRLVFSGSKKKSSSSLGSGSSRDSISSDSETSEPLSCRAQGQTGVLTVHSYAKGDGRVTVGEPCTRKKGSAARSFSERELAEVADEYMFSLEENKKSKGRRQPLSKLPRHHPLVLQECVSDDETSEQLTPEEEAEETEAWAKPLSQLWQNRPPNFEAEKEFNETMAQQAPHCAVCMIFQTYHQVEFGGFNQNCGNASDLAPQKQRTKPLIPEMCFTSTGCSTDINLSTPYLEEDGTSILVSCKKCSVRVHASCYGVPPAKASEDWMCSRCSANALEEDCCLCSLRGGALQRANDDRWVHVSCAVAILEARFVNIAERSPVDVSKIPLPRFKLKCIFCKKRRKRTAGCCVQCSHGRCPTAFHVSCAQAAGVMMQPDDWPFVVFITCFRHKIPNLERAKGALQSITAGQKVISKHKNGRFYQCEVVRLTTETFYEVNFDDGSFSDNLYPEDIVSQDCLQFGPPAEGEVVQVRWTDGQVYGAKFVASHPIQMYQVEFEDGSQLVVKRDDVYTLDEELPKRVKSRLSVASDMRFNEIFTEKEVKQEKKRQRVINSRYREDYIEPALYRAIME
The data set can be described thus: Cellular demethylase assay: H3K9me3 immunofluorescence in HeLa cells overexpressing Flag-JMJD2A. The settings on record: 2.5mM treatment, 24 hr.
From the text: Therefore, in order to automate this process a series of images were collected for each treatment on a standard epifluorescence microscope ( Figure 5A ) and then submitted to CellProfiler Software for analysis [29]. CellProfiler was configured to analyze the images for DAPI signal, a DNA stain, enabling the program to identify the location of individual cells and create a boundary that delineates the volume of the nuclear compartment. As not all cells in a given field are transfected, the Flag-JMJD2A-expressing cells were identified by quantifying the immunofluoresence signal resulting from the Flag antibody staining and using the mock transfected cells as a baseline for the signal intensity of non-transfected cells. Once the transfected cells were identified, the nuclear H3K9me3 immunofluorescence signal for each cell was quantified by CellProfiler. The levels of H3K9me3 staining intensity were analyzed in the DMSO vehicle treated or inhibitor treated samples. As a control and a means of determining maximal possible inhibition of demethylase activity, cells expressing the JMJD2A H188A catalytically deficient mutant were also quantified in each experiment. […] For each treatment a minimum of 400 transfected cells was analyzed and the final values of inhibition were derived from inhibition experiments carried out on three separate days (biological triplicates). […]

Chain of FIH (Q9NWT6 whole entry): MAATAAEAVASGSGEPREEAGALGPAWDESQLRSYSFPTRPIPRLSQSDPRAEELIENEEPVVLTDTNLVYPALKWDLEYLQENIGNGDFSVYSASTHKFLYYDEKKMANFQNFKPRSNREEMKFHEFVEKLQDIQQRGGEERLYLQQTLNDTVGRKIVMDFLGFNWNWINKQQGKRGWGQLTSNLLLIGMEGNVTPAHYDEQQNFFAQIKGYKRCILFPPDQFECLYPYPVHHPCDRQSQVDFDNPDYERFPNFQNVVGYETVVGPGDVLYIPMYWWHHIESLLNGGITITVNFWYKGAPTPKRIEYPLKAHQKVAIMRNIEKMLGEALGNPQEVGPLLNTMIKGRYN
Method for FIH: as §1
Method for PHD2 (catalytic domain): as §1

Regarding `O=C(O)c1ccc(O)c2ncccc12` [SID 85736331, 5-carboxy-8-hydroxyquinoline], the IC50 amounted to 20.5 µM at FIH and 292 µM in data set [1].
Turning to `Oc1ccc(CNc2ccccc2F)c2cccnc12` [SID 852641], the IC50 at PHD2 (catalytic domain) was 14.4 µM; on FIH, 19.6 µM; at JMJD2A [2], 8.2 µM; against JMJD2E it was 6 µM; on JMJD2E (KDM4E), 1.1 µM.
`COC(=O)CNC(=O)C(=O)OC` [DMOG, dimethyloxalylglycine]: the “JMJD2A demethylase activity remaining” value on JMJD2A [3] was “approximately 20%”.
